# Laboratory results as given in patent US9029409B2, “Isoxazolines as therapeutic agents” (AbbVie Inc., priority 2011, dated 2015).
# pIC50: −log10 of the molar value.
# Molecular target: T1, recombinant human MMP13 catalytic domain (CD) (Homo sapiens, UniProt P45452)
# T1 construct: catalytic domain (CD) construct encompassing residues 20-274 (SWISS-PROT P45452); made in house
# Assay: MMP-13 catalytic domain FRET enzyme assay
# Format: biochemical
# Conditions: recombinant human MMP-13 catalytic domain
# Procedure: A recombinant human MMP13 catalytic domain (CD) construct encompassing residues 20-274 (SWISS-PROT P45452) was generated by synthetic gene methods and bacterial expression. MMP-13 activity assays were performed using the recombinant human MMP-13 CD at a 0.4 nM concentration and the fluorogenic substrate (QXL-520)-K-P-L-A˜Nva-Dap(5-FAM)-A-R-NH2 (Anaspec cat #60554-01, San Jose, Calif.) at a 0.25 μM concentration in assay buffer containing […], pH 7.5, 10 mM CaCl2, 150 mM NaCl, 0.05% Brij 35. The assay is based on the cleavage of this substrate by MMP-13, resulting in decrease of FRET between the donor-acceptor pair and subsequent fluorescence enhancement. The assays were carried out in 384-well plates (Greiner cat #781076, Germany) for 60 min at RT. After the incubation period, the reaction was quenched by the addition of 5 μL of 500 mM EDTA (100 mM final concentration) (Rankem, Cat #E0120, India) mixed well and the rate of substrate hydrolysis was determined by monitoring change in fluorescence at excitation and emission wavelengths of 485 nm and 535 nm respectively. Fluorescence was measured on a Victor V5 plate reader (Perkin Elmer, Turku, Finland). The test compounds used for assessing the potency of inhibition of MMP-13 activity were dissolved in DMSO (final DMSO concentration in the assay was 5%). Selected compounds were also screened against full length MMP13 (R&D Systems (Cat. No. 511-MM-010), Minneapolis, Minn.) at 2 nM concentration using the same fluorogenic substrate mentioned above. The enzyme was activated using 1 m Mp-aminophenylmercuric acetate—APMA (Cat #A-9563, Sigma, Germany).
# Data analysis: The percent inhibition of the enzyme activity in presence of test compounds were calculated using the equation, percent (%) Inhibition=100−[(Fi/Fc)*100] where Fc is the fluorescence corresponding to initial enzyme activity and Fi is the fluorescence corresponding to the enzyme activity in presence of inhibitor. The IC50 values were calculated by fitting the dose-response data to a sigmoidal curve fitting equation using Graph Pad prism software (Version 5, La Jolla, Calif.).
# MMP13 Catalytic Domain (CD) Potency of the Described Examples Determined Using Time Resolved Fluorescence Resonance Energy Transfer (FRET) Enzyme Assays: […]
row,SMILES,pIC50
1,COc1cc(CNC(=O)c2cc(C3=NOC(C4CCN(C(=O)CNC(C)=O)CC4)C3)nc(C)n2)ccc1F (stereo not shown) [drawing 1064],7.00 to 8.00
2,COc1cc(CNC(=O)c2cc(C3=NOC(CC4CCN(C(=O)CO)CC4)C3)nc(C)n2)ccc1F (stereo not shown),7.00 to 8.00
3,COc1cc(CNC(=O)c2cc(C3=NOC(c4ccc(S(C)(=O)=O)cn4)C3)nc(C)n2)ccc1F (stereo not shown),> 8.00
4,COc1cc(CNC(=O)c2cc(C3=NOC(C4CCN(C(=O)CC#N)CC4)C3)nc(C)n2)ccc1F (stereo not shown) [drawing 1065],7.00 to 8.00
5,COc1cc(CNC(=O)c2cc(C3=NOC(c4cnc(S(C)(=O)=O)cn4)C3)nc(C)n2)ccc1F (stereo not shown),7.00 to 8.00
6,COc1cccc(CNC(=O)c2cc(C3=NOC(c4ccc(C(=O)O)cc4)C3)ccn2)c1 (stereo not shown),> 8.00
7,COc1cc(CNC(=O)c2cc(C3=NO[C@H]([C@H]4CO[C@H](CO)CO4)C3)nc(C)n2)ccc1F,> 8.00
8,Cc1nc(C(=O)NCc2ccc3c(c2)NC(=O)CC3)cc(C2=NO[C@H]([C@H]3CO[C@H](CO)CO3)C2)n1,7.00 to 8.00
9,COc1cc(CNC(=O)c2cc(C3=NOC(c4cccnc4)C3)nc(C)n2)ccc1F (stereo not shown),> 8.00
10,Cc1nc(C(=O)NCc2ccc(F)c(F)c2)cc(C2=NO[C@H]([C@H]3CO[C@H](CO)CO3)C2)n1 [drawing 952],7.00 to 8.00
11,COc1ccc(CNC(=O)c2cc(C3=NOC(C)(c4ccc(OCCO)cc4)C3)nc(C)n2)cc1 (stereo not shown),6.00 to 7.00
12,COc1ccc(CNC(=O)c2cc(C3=NOC(c4ccc(CO)cc4)C3)nc(C)n2)cc1 (stereo not shown),7.00 to 8.00
13,COc1cc(CNC(=O)c2cc(C3=NOC(C(=O)NCCO)C3)nc(C)n2)ccc1F (stereo not shown),6.00 to 7.00
14,Cc1nc(C(=O)NCc2ccc(F)cc2)cc(C2=NO[C@@H]([C@H]3CO[C@H](CO)CO3)C2)n1,< 6.00
15,COc1cc(CNC(=O)c2cc(C3=NO[C@@H]([C@H]4CO[C@H](CO)CO4)C3)nc(C)n2)ccc1F [drawing 1055],6.00 to 7.00
16,COc1cc(CNC(=O)c2cc(C3=NOC(C4CCC(O)CC4)C3)nc(C)n2)ccc1F (stereo not shown),> 8.00
17,COc1cc(CNC(=O)c2cc(C3=NOC(c4ccccc4)C3)c(=O)n(C)n2)ccc1F (stereo not shown),7.00 to 8.00
18,CNC(=O)[C@@H]1CO[C@@H]([C@@H]2CC(c3cc(C(=O)NCc4ccc(F)c(OC)c4)nc(C)n3)=NO2)CO1,> 8.00
19,COc1cc(CNC(=O)c2cc(C3=NOC(C4CCN(C(=O)NC(C)C)CC4)C3)nc(C)n2)ccc1F (stereo not shown),7.00 to 8.00
20,COc1ccc(CNC(=O)c2cc(C3=NO[C@H](c4ccc(OCCO)cc4)C3)nc(C)n2)cc1,> 8.00
21,COc1ccc(CNC(=O)c2cc(C3CC(c4ccc(OCCO)cc4)=NO3)nc(C)n2)cc1 (stereo not shown),7.00 to 8.00
22,COc1cc(CNC(=O)c2cc(C3=NOC(c4ccn(CC(=O)NC(C)C)c(=O)c4)C3)nc(C)n2)ccc1F (stereo not shown),7.00 to 8.00
23,COc1cc(CNC(=O)c2cc(C3=NOC(C4CCN(C(=O)NCCO)CC4)C3)nc(C)n2)ccc1F (stereo not shown) [drawing 888],> 8.00
24,COc1cc(CNC(=O)c2cc(C3CC(c4ccccc4)=NO3)nc(C)n2)ccc1F (stereo not shown),7.00 to 8.00

# Now from value to compound:
row,pIC50,SMILES
1,7.00 to 8.00,Cc1nc(C(=O)NCc2ccc(F)cc2)cc(C2=NOC(c3ccc(C#N)nn3)C2)n1 (stereo not shown)
2,< 6.00,COc1cc(CNC(=O)c2cc(C3=NOC(CN4CCOCC4)C3)nc(C)n2)ccc1F (stereo not shown)
3,> 8.00,COc1cc(CNC(=O)c2cc(C3=NOC(C4CCN(C(=O)N(C)C)CC4)C3)nc(C)n2)ccc1F (stereo not shown) [drawing 876]
4,> 8.00,Cc1nc(C(=O)NCc2ccc3c(c2)NC(=O)CO3)cc(C2=NO[C@H]([C@H]3CC[C@H](NC(=O)[C@H](C)O)CC3)C2)n1
5,> 8.00,COc1cc(CNC(=O)c2cc(C3=NOC(c4ccc(CN5CCS(=O)(=O)CC5)cc4)C3)nc(C)n2)ccc1F (stereo not shown)
6,7.00 to 8.00,COc1cc(CNC(=O)c2cc(C3=NO[C@H]([C@H]4CO[C@H](C(C)(C)O)CO4)C3)nc(C)n2)ccc1F
7,7.00 to 8.00,COc1cc(CNC(=O)c2cc(C3=NOC(c4ccccn4)C3)nc(C)n2)ccc1F (stereo not shown)
8,7.00 to 8.00,COc1cccc(CNC(=O)c2cc(C3=NOC(C4CCN(C(=O)CO)CC4)C3)nc(C)n2)c1 (stereo not shown)
9,> 8.00,CC(=O)N[C@H]1CC[C@H]([C@@H]2CC(c3cc(C(=O)NCc4ccc(F)c(C)c4)nc(C)n3)=NO2)CC1
10,> 8.00,CC(=O)N[C@H]1CC[C@H](C2CC(c3cc(C(=O)NCc4ccc(F)c(C)c4)nc(C)n3)=NO2)CC1 (stereo partly shown)
11,> 8.00,Cc1nc(C(=O)NCc2ccc(F)c(Cl)c2)cc(C2=NO[C@H]([C@H]3CC[C@H](NC(=O)[C@H](C)O)CC3)C2)n1
12,7.00 to 8.00,COc1ccc(CNC(=O)c2cc(C3=NOC(c4ccccc4)C3)nc(C)n2)cc1 (stereo not shown)
13,> 8.00,COc1cc(CNC(=O)c2cc(C3=NOC(c4ccc(C(C)=O)cn4)C3)nc(C)n2)ccc1F (stereo not shown)
14,7.00 to 8.00,COc1ccc(CNC(=O)c2cc(C3=NO[C@@H](c4ccc(OCCO)cc4)C3)nc(C)n2)cc1
15,> 8.00,COc1cc(CNC(=O)c2cc(C3=NOC([C@H]4CC[C@H](C(=O)NCCO)CC4)C3)nc(C)n2)ccc1F (stereo partly shown)
16,> 8.00,COc1cc(CNC(=O)c2cc(C3=NOC(C4CCN(S(=O)(=O)c5cn(C)c(C)n5)CC4)C3)nc(C)n2)ccc1F (stereo not shown)
17,< 6.00,Cc1nc(C(=O)NCc2ccc(Cl)c(Cl)c2)cc(C2=NO[C@H]([C@H]3CO[C@H](CO)CO3)C2)n1

row,pIC50,SMILES
1,> 8.00,COc1cc(CNC(=O)c2cc(C3=NOC([C@H]4CC[C@H](CNC(C)=O)CC4)C3)nc(C)n2)ccc1F (stereo partly shown)
2,> 8.00,COc1cc(CNC(=O)c2cc(C3=NOC([C@H]4CC[C@H](NC(=O)CO)CC4)C3)nc(C)n2)ccc1F (stereo partly shown)
3,> 8.00,CC(=O)N[C@H]1CC[C@H](C2CC(c3cc(C(=O)NCc4ccc(F)c(Cl)c4)nc(C)n3)=NO2)CC1 (stereo partly shown)
4,< 6.00,Cc1nc(C(=O)NCc2ccncc2)cc(C2=NO[C@@H]([C@H]3CO[C@H](CO)CO3)C2)n1
5,7.00 to 8.00,Cc1nc(C(=O)NCc2ccncc2)cc(C2=NO[C@H]([C@H]3CO[C@H](CO)CO3)C2)n1
6,7.00 to 8.00,COc1cc(CNC(=O)c2cc(C3=NOC(C4CCN(C(=O)CCN(C)C)CC4)C3)nc(C)n2)ccc1F (stereo not shown)
7,6.00 to 7.00,Cc1nc(C(=O)NCc2ccc(=O)n(C)c2)cc(C2=NO[C@@H]([C@H]3CO[C@H](CO)CO3)C2)n1
8,7.00 to 8.00,COc1cc(CNC(=O)c2cc(C3=NOC(C4CCN(C(=O)C(C)(C)O)CC4)C3)nc(C)n2)ccc1F (stereo not shown)
9,> 8.00,COc1cc(CNC(=O)c2cc(C3=NOC(C4CCCCC4)C3)nc(C)n2)ccc1F (stereo not shown)
10,> 8.00,COc1cc(CNC(=O)c2cc(C3=NO[C@H]([C@H]4CO[C@H](CNC(=O)CC#N)CO4)C3)nc(C)n2)ccc1F
11,7.00 to 8.00,COc1cc(CNC(=O)c2cc(C3=NOC(c4cnc5[nH]ncc5c4)C3)nc(C)n2)ccc1F (stereo not shown)
12,7.00 to 8.00,COc1cc(CNC(=O)c2cc(C3=NOC(C4CCN(S(=O)(=O)C5CC5)CC4)C3)nc(C)n2)ccc1F (stereo not shown)
13,7.00 to 8.00,COc1cc(CNC(=O)c2cc(C3=NOC(c4ccc(=O)n(CCO)c4)C3)nc(C)n2)ccc1F (stereo not shown)
14,< 6.00,Cc1nc(C(=O)NCc2ccc3oc(C)nc3c2)cc(C2=NO[C@@H]([C@H]3CO[C@H](CO)CO3)C2)n1
15,> 8.00,CNC(=O)N1CCC(C2CC(c3cc(C(=O)NCc4ccc(F)c(OC)c4)nc(C)n3)=NO2)CC1 (stereo not shown)
16,< 6.00,COc1ccc(CNC(=O)c2cc(C3=NO[C@@H]([C@H]4CO[C@H](CO)CO4)C3)nc(C)n2)cc1
17,> 8.00,COc1cc(CNC(=O)c2cc(C3=NOC([C@H]4CC[C@H](NC(=O)[C@H](C)O)CC4)C3)nc(C)n2)ccc1F (stereo partly shown)
